The values below come from patent US9758492B2, “IDO inhibitors” (Bristol-Myers Squibb Company, priority 2013, dated 2017).

For the assay, the target named is IDO (Homo sapiens, UniProt P14902). The assay can be described thus: LLE_IDO_ABS_DR (IDO assay).
Sequence of IDO (P14902 whole entry): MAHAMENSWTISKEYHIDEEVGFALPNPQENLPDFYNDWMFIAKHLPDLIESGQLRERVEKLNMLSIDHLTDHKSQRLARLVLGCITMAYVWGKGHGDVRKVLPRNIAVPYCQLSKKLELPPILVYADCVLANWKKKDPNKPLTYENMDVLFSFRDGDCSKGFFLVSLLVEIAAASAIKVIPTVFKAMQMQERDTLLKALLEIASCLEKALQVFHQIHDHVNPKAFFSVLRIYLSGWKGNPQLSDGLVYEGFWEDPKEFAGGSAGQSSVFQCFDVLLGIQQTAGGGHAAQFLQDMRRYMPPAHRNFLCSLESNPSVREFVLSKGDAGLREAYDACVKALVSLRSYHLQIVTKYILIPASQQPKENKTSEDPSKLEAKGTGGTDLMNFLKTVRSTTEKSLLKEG
Turning to `CCCCN(CCCC)c1ccc(-c2ccccc2-c2nnn[nH]2)cc1NC(=O)Nc1ccc(C)cc1` [Example 88, 1-(4-(dibutylamino)-2′-(1H-tetrazol-5-yl)biphenyl-3-yl)-3-p-tolylurea], the IC50 (in general, the midpoint of a concentration-inhibition curve) worked out at 9.82 nM.
In the case of `CCCCN(CCCC)c1ccc(-c2ccccc2C(=O)O)cc1NC(=O)Nc1ccc(C)cc1` [Example 89, 4′-(dibutylamino)-3′-(3-p-tolylureido) biphenyl-2-carboxylic acid], half-maximal inhibition (IC50) required 50 nM.
With `CCCCN(CCCC)c1ccc(-c2cc(F)ccc2C(=O)O)cc1NC(=O)Nc1ccc(C)cc1` [Example 90, 4′-(dibutylamino)-5-fluoro-3′-(3-p-tolylureido)biphenyl-2-carboxylic acid] the figure was 10 nM; with `CCCCN(CCCC)c1ccc(-c2sccc2C(=O)O)cc1NC(=O)Nc1ccc(C)cc1` [Example 91, 2-(4-(dibutylamino)-3-(3-p-tolylureido)phenyl)thiophene-3-carboxylic acid], 60 nM.
With `Cc1ccc(NC(=O)Nc2cc(-c3ccccc3-c3nnn[nH]3)ccc2N(CC(C)C)CC2CC2)cc1` [Example 92, 1-(4-((cyclopropylmethyl) (isobutyl)amino)-2′-(1H-tetrazol-5-yl)biphenyl-3-yl)-3-p-tolylurea] the figure was 20 nM; with `Cc1ccc(NC(=O)Nc2cc(-c3ccccc3C(=O)O)ccc2N(CC(C)C)CC2CC2)cc1` [Example 93, 4′-((cyclopropylmethyl) (isobutyl)amino)-3′-(3-p-tolylureido) biphenyl-2-carboxylic acid], 80 nM.
With `Cc1ccc(NC(=O)Nc2cc(-c3ccccc3C(=O)C(C#N)S(C)(=O)=O)ccc2N(CC(C)C)CC(C)C)cc1` (centres unmarked) [Example 96, 1-(2′-(2-cyano-2-(methylsulfonyl)acetyl)-4-(diisobutylamino)biphenyl-3-yl)-3-p-tolylurea] the figure was 1180 nM; with `Cc1ccc(NC(=O)Nc2cc(-c3cccc(C(=O)O)c3)ccc2N(CC(C)C)CC2CCC2)cc1` [Example 97, 4′-((cyclobutylmethyl) (isobutyl)amino)-3′-(3-p-tolylureido)biphenyl-3-carboxylic acid], 4640 nM; with `Cc1ccc(NC(=O)Nc2cc(-c3ccccc3-c3nnn[nH]3)ccc2N(CC(C)C)CC2CCC2)cc1` [Example 98, 1-(4-((cyclobutylmethyl) (isobutyl)amino)-2′-(1H-tetrazol-5-yl)biphenyl-3-yl)-3-p-tolylurea], 30 nM.
With `Cc1ccc(NC(=O)Nc2cc(-c3cc(F)ccc3C(=O)O)ccc2N(CC(C)C)CC2CCC2)cc1` [Example 99, 4′-((cyclobutylmethyl) (isobutyl)amino)-5-fluoro-3′-(3-p-tolylureido)biphenyl-2-carboxylic acid], the IC50 was 90 nM.
With `Cc1ccc(NC(=O)Nc2cc(-c3ccccc3C(=O)O)ccc2N(CC(C)C)CC2CCC2)cc1` [Example 100, 4′-((cyclobutylmethyl) (isobutyl)amino)-3′-(3-p-tolylureido)biphenyl-2-carboxylic acid] the figure was 90 nM; with `Cc1ccc(NC(=O)Nc2cc(-c3c(C(=O)O)cccc3N(C)C)ccc2N(CC(C)C)CC(C)C)cc1` [Example 101, 4′-(diisobutylamino)-6-(dimethylamino)-3′-(3-p-tolylureido) biphenyl-2-carboxylic acid], 10 nM.
With `CCn1nc(C)c(-c2ccc(N(CC(C)C)CC(C)C)c(NC(=O)Nc3ccc(C)cc3)c2)c1C(=O)O` [Example 102, 4-(4-(diisobutylamino)-3-(3-p-tolylureido)phenyl)-1-ethyl-3-methyl-1H-pyrazole-5-carboxylic acid] the figure was 210 nM.
The value for `Cc1ccc(NC(=O)Nc2cc(-c3scnc3C(=O)O)ccc2N(CC(C)C)CC(C)C)cc1` [Example 103, 5-(4-(diisobutylamino)-3-(3-p-tolylureido)phenyl)thiazole-4-carboxylic acid] was 1760 nM.
